Here are results for 18 compounds from BindingDB's records for doi:10.1002/cbic.201000376 (Gyeongsang National University, 2010).

Chain of Alpha-glucosidase MAL12 (P53341 whole entry): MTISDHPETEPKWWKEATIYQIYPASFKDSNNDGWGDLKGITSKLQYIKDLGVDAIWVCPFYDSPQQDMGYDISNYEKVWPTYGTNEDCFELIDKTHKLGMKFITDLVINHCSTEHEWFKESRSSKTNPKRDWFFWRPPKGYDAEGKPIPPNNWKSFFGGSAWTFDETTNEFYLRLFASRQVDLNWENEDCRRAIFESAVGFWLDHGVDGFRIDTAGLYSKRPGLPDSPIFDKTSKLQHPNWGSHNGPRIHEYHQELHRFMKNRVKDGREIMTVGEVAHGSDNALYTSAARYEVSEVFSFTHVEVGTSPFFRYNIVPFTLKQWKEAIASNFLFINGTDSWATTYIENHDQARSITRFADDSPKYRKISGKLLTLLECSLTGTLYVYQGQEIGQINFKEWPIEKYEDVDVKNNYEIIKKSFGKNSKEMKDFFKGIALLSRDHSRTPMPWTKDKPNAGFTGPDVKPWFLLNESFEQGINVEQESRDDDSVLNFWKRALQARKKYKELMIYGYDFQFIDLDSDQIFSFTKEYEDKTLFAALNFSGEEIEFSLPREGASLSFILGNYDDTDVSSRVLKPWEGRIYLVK

The assay has as its target Alpha-glucosidase MAL12 (Saccharomyces cerevisiae (strain ATCC 204508 / S288c), UniProt P53341). Nature of the assay: Inhibition Assay. As to the method:
All enzymatic activities were determined by using the appropriate substrate (p-nitrophenyl-alpha-D-glucopyranoside, p-nitrophenyl-beta-D-gulcopyranoside, o-nitrophenyl-alpha-D-manno-pyranoside, p-nitrohenyl-alpha-D-galactopyranoside and strach at the pH or each enzyme.
Consider `O=C(Nc1ccccc1)Nc1ccc(/C=C/c2ccc(O)c(O)c2)cc1` [Urea derivative, 6], for which the IC50 (as a rule, the concentration needed to halve the response being measured) stood at 42.1 µM; the Ki (commonly the dissociation constant of the complex between target and ligand, obtained from inhibition or displacement) came to 10.6 µM.

As for `O=C(Nc1ccc(/C=C/c2ccc(O)cc2)cc1)Nc1ccc(F)cc1F` [Urea derivative, 16], half-maximal inhibition (IC50) required 18.5 µM and the inhibition constant (Ki) came to 9.4 µM.

`COc1ccc(NC(=O)Nc2ccc(/C=C/c3ccc(O)cc3)cc2)cc1` [Urea derivative, 15] displayed a half-maximal inhibitory concentration (IC50) of 60.1 µM.

With `Nc1ccc(NC(=O)Nc2ccc(/C=C/c3ccc(O)c(O)c3)cc2)cc1` [Urea derivative, 8], the half-inhibitory concentration (IC50) turned out to be 68.5 µM.

In the case of `O=C(Nc1ccc(/C=C/c2ccc(O)c(O)c2)cc1)Nc1ccc(F)cc1F` [Urea derivative, 12], the IC50 worked out at 8.4 µM and the Ki amounted to 3.2 µM.

Compound `O=C(Nc1ccc(F)cc1)Nc1ccc(/C=C/c2ccc(O)c(O)c2)cc1` [Urea derivative, 11] had an IC50 of 19.8 µM and an inhibition constant (Ki) of 7.2 µM.

Turning to `Oc1ccc(/C=C/c2cc(O)cc(O)c2)cc1` [5-[(E)-2-(4-hydroxyphenyl)ethenyl]benzene-1,3-diol], 26.4 µM corresponded to half-maximal inhibition (IC50) and the Ki stood at 21.5 µM.

`CC(=O)Nc1ccc(/C=C/c2ccc(O)c(O)c2)cc1` [Stilbene derivative, 5] returned a 50% inhibitory concentration (IC50) of over 200 µM.

With `O=C(Nc1ccccc1)Nc1ccc(/C=C/c2cc(O)cc(O)c2)cc1` [Urea derivative, 17], inhibition was half-maximal at 58.8 µM (IC50).

On to `COc1ccc(NC(=O)Nc2ccc(/C=C/c3ccc(O)c(O)c3)cc2)cc1` [Urea derivative, 7], for which the half-maximal inhibitory concentration (IC50) worked out at 19.5 µM and the inhibition constant Ki is 10.5 µM.

As for `O=C(Nc1ccc(Cl)cc1)Nc1ccc(/C=C/c2ccc(O)c(O)c2)cc1` [Urea derivative, 13], half-maximal inhibition (IC50) required 14.3 µM and the Ki is 4.6 µM.

Turning to `COc1ccc(NC(=O)Nc2ccc(/C=C/c3cc(O)cc(O)c3)cc2)cc1` [Urea derivative, 18], the half-maximal inhibitory concentration (IC50) is 105 µM.

`O=C(Nc1ccccc1)Nc1ccc(/C=C/c2ccc(O)cc2)cc1` [Urea derivative, 14]: the half-inhibitory concentration (IC50) worked out at 29.1 µM and the Ki is 17 µM.

Take `O=C(Nc1ccc(/C=C/c2cc(O)cc(O)c2)cc1)Nc1ccc(F)cc1F` [Urea derivative, 19]: inhibition was half-maximal at 64.3 µM (IC50).

Compound `Cc1ccc(NC(=O)Nc2ccc(/C=C/c3ccc(O)c(O)c3)cc2)cc1` [Urea derivative, 9] registered a concentration for half-maximal inhibition (IC50) of 63.6 µM.

Compound `Nc1ccc(/C=C/c2ccc(O)cc2)cc1` showed an IC50 of over 200 µM.

Turning to `O=C(Nc1ccc(/C=C/c2ccc(O)c(O)c2)cc1)Nc1ccc(C(F)(F)F)cc1` [Urea derivative, 10], 28.8 µM corresponded to half-maximal inhibition (IC50) and the affinity corresponds to a Ki of 12.1 µM.

On to `CNc1ccc(/C=C/c2ccc(O)c(O)c2)cc1` [Stilbene derivative, 4], for which the IC50 was over 200 µM.
